From US7049314B2, “Cyclopentyl indole derivatives” (Bristol-Myers Squibb Company, priority 2002, dated 2006)

Target: T1, human serotonin transporters (Homo sapiens, UniProt P31645)
T1 construct: expressed in transfected cells
Experiment: Serotonin Transporter Binding Assay ([3H]-citalopram displacement, HEK-hSERT cell membranes)
Conditions: HEK-hSERT membranes, 1 nM [3H]-citalopram, 1 hr at 25° C.; read-out: SERT (binding Ki)
Protocol: HEK-293 cells that stably express human serotonin transporters (HEK-hSERT cells) were grown at 37° C. in 5% CO2 as a monolayer in medium consisting of EMEM supplemented with 10% fetal bovine serum and G418 sulfate (500 μg/mL). To prepare membranes for radioligand binding experiments, cells were rinsed twice with phosphate-buffered saline (138 mM NaCl, 4.1 mM KCl, 5.1 mM Na2PO4, 1.5 mM […], 11.1 mM glucose, pH 7.4). Cells were transferred from plates to polypropylene tubes (16×100 mm), centrifuged at 1,200×g for 5 min and were frozen at −80° C. until assay. Following centrifugation, pellets were resuspended by homogenization in buffer consisting of 50 mM Tris (pH 7.7 at 25° C.), 120 mM NaCl and 5 mM KCl and then centrifuged at 32,000×g for 10 min. Following centrifugation, supernatants were discarded and pellets were resuspended in buffer consisting of 50 mM Tris (pH 7.4 at 25° C.), 150 mM NaCl and 5 mM KCl. Membrane homogenates (200 μl/plate) were incubated with 1 nM [^3H]-citalopram (specific activity=85 Ci/mMol) and increasing concentrations of test compounds for 1 hr at 25° C. in a total volume of 250 μl. The assay buffer consisted of 50 mM Tris (pH 7.4 at 25° C.), 120 mM NaCl and 5 mM KCl (pH 7.4 with conc. HCl). Plates were incubated for 1 hr at 25° C., then filtered through 0.5% PEI treated Whatman GF/B filters using a Brandel cell harvester. Filters were washed three times with 3 mL of ice-cold tris wash buffer. Non-specific binding was defined with 10 μM fluoxetine. Amount of radioligand bound in the presence and absence of competitor was analyzed by plotting (−)log drug concentration versus the amount of radioligand specifically bound. The midpoint of the displacement curve (IC50, nM), signifies the potency. Ki values were calculated using the method of Cheng and Prusoff (1973).

T1 sequence (P31645 whole entry): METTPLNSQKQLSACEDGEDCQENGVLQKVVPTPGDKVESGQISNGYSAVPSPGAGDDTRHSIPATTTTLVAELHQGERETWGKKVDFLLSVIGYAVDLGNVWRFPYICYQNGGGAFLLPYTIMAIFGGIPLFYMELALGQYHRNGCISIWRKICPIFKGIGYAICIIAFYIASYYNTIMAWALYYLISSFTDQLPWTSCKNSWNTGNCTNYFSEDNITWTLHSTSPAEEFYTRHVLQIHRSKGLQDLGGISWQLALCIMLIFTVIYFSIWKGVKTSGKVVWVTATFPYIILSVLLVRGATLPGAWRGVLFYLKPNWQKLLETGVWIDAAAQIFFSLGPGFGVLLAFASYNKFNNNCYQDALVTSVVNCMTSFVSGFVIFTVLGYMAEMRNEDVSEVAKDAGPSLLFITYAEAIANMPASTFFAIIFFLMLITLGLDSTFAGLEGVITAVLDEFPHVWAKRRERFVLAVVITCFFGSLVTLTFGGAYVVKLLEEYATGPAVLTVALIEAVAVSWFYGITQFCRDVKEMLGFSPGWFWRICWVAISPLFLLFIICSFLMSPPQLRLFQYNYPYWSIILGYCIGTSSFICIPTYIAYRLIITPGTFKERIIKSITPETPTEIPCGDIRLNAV

Q: How did the Ki turn out when `CN(CCc1ccccc1)C1CCC(c2c[nH]c3ccc(C#N)cc23)C1` (stereo not shown) [Compound 10, 3-[3-(Methyl-phenethyl-amino)-cyclopentyl]-1H-indole-5-carbonitrile] was run?
A: The Ki was 1 to 10 nM.

Q: How did the Ki turn out when `CN(Cc1ccccc1)C1CCC(c2c[nH]c3ccc(C#N)cc23)C1` (stereo not shown) [Compound 12, 3-[3-(Benzyl-methyl-amino)-cyclopentyl]-1H-indole-5-carbonitrile] was run?
A: Its Ki is 1 to 10 nM.

Q: For `N#Cc1ccc2[nH]cc(C3CCC(NCc4ccccc4)C3)c2c1` (stereo not shown) [Compound 13, 3-(3-Benzylamino-cyclopentyl)-1H-indole-5-carbonitrile], which Ki is on record?
A: The Ki was 1 to 10 nM.

Q: How did the Ki turn out when `CCCN(CCC)C1CCC(c2c[nH]c3ccc(C#N)cc23)C1` (stereo not shown) [Compound 15, 3-(3-Dipropylamino-cyclopentyl)-1H-indole-5-carbonitrile] was run?
A: Its Ki is 1 to 10 nM.

Q: Which Ki does the source give for `Cn1cc(C2CCC(NCc3ccccc3)C2)c2cc(C#N)ccc21` (stereo not shown) [Compound 19, 3-(3-Benzylamino-cyclopentyl)-1-methyl-1H-indole-5-carbonitrile] here?
A: The Ki was 1 to 10 nM.

Q: With `Cn1cc(C2CCC(NCCc3ccccc3)C2)c2cc(C#N)ccc21` (stereo not shown) [Compound 20, 1-Methyl-3-(3-phenethylamino-cyclopentyl)-1H-indole-5-carbonitrile] as the compound, how does the Ki read?
A: Its Ki is 1 to 10 nM.

Q: With `CN(C)C1CCC(c2c[nH]c3cccc(F)c23)C1` (stereo not shown) [Compound 37, 3-(4-Fluoro-1H-indol-3-yl)-cyclopentyl-dimethyl-amine] as the compound, how does the Ki read?
A: The Ki was 10 to 100 nM.

Q: How did the Ki turn out when `CN(C)C1CCC(c2c[nH]c3cccc(Br)c23)C1` (stereo not shown) [Compound 38, 3-(4-Bromo-1H-indol-3-yl)-cyclopentyl-dimethyl-amine] was run?
A: Its Ki is 1 to 10 nM.

Q: For `CN(C)C1CCC(c2c[nH]c3ccc(Cl)cc23)C1` (stereo not shown) [Compound 39, 3-(5-Chloro-1H-indol-3-yl)-cyclopentyl-dimethyl-amine], which Ki is on record?
A: Its Ki is 1 to 10 nM.

Q: How did the Ki turn out when `CN(C)C1CCC(c2c[nH]c3ccc(Br)cc23)C1` (stereo not shown) [Compound 40, 3-(5-Bromo-1H-indol-3-yl)-cyclopentyl-dimethyl-amine] was run?
A: Its Ki is 1 to 10 nM.

Q: How did the Ki turn out when `CN(C)C1CCC(c2c[nH]c3ccc(I)cc23)C1` (stereo not shown) [Compound 41, 3-(5-Iodo-1H-indol-3-yl)-cyclopentyl-dimethyl-amine] was run?
A: Its Ki is 10 to 100 nM.

Q: Which Ki does the source give for `CN(C)C1CCC(c2c[nH]c3cc(F)ccc23)C1` (stereo not shown) [Compound 42, 3-(6-Fluoro-1H-indol-3-yl)-cyclopentyl-dimethyl-amine] here?
A: Its Ki is 1 to 10 nM.

Q: With `CN(C)C1CCC(c2c[nH]c3cc(Cl)ccc23)C1` (stereo not shown) [Compound 43, 3-(6-Chloro-1H-indol-3-yl)-cyclopentyl-dimethyl-amine] as the compound, how does the Ki read?
A: The Ki was 1 to 10 nM.

Q: `CN(C)C1CCC(c2c[nH]c3cc(Br)ccc23)C1` (stereo not shown) [Compound 44, 3-(6-Bromo-1H-indol-3-yl)-cyclopentyl-dimethyl-amine] was tested. Which Ki did it give?
A: Its Ki is 1 to 10 nM.

Q: Which Ki does the source give for `CN(C)C1CCC(c2c[nH]c3c(F)cccc23)C1` (stereo not shown) [Compound 45, 3-(7-Fluoro-1H-indol-3-yl)-cyclopentyl-dimethyl-amine] here?
A: Its Ki is 1 to 10 nM.

Q: How did the Ki turn out when `CN(C)C1CCC(c2c[nH]c3c(Cl)cccc23)C1` (stereo not shown) [Compound 46, 3-(7-Chloro-1H-indol-3-yl)-cyclopentyl-dimethyl-amine] was run?
A: Its Ki is under 1 nM.

Q: With `CN(C)C1CCC(c2c[nH]c3c(Br)cccc23)C1` (stereo not shown) [Compound 47, 3-(7-Bromo-1H-indol-3-yl)-cyclopentyl-dimethyl-amine] as the compound, how does the Ki read?
A: The Ki was 1 to 10 nM.

Q: With `N#Cc1ccc2[nH]cc([C@H]3CCC(N)C3)c2c1` (stereo partly drawn) [Compound 60, (1S)-3-(3-Amino-cyclopentyl)-1H-indole-05-carbonitrile] as the compound, how does the Ki read?
A: Its Ki is 10 to 100 nM.

Q: With `N#Cc1ccc2[nH]cc([C@H]3CCC(NC4CC[C@H](c5c[nH]c6ccc(C#N)cc56)C4)C3)c2c1` (stereo partly drawn) [Compound 61, (3S,3′S)-bis-(3-(5-cyano-1H-indol-3-yl)cyclopentyl)amine] as the compound, how does the Ki read?
A: Its Ki is 1 to 10 nM.

Target: T2, human norepinephrine transporters (Homo sapiens, UniProt P23975)
T2 construct: host or cells: MDCK cells (also 'HEK-hNET cells'), membrane homogenates
Experiment: Norepinephrine Transporter Binding Assay ([3H]-nisoxetine displacement, hNET cell membranes)
Conditions: 2.7 nM [3H]-nisoxetine, 1 hr at 4° C., read-out: NE Reuptake (binding Ki)
Protocol: MDCK cells that stably express human norepinephrine transporters (HEK-hNET cells) were supplied by Receptor Biology, Inc. Pellets were resuspended by homogenization in buffer consisting of 50 mM Tris (pH 7.4 at 25° C.), 120 mM NaCl and 5 mM KCl. Membrane homogenates (200 μl/well, 8 ug protein) were incubated with 2.7 nM [^3H]-nisoxetine (specific activity=80 Ci/mMol) and increasing concentrations of test compounds for 1 hr at 4° C. in a total volume of 250 μl. The assay buffer consisted of 50 mM Tris (pH 7.4 at 25° C.), 120 mM NaCl and 5 mM KCl (pH 7.4 with conc. HCl). Plates were incubated for 1 hr at 4° C., then filtered through 0.5% PEI treated Whatman GF/B filters using a Brandel cell harvester. Filters were washed three times with 3 mL of ice-cold tris wash buffer. Non-specific binding was defined with 10 μM desipramine. Amount of radioligand bound in the presence and absence of competitor was analyzed by plotting (−)log drug concentration versus the amount of radioligand specifically bound. The midpoint of the displacement curve (IC50, nM), signifies the potency. Ki values were calculated using the method of Cheng and Prusoff (1973).

T2 sequence (P23975 whole entry): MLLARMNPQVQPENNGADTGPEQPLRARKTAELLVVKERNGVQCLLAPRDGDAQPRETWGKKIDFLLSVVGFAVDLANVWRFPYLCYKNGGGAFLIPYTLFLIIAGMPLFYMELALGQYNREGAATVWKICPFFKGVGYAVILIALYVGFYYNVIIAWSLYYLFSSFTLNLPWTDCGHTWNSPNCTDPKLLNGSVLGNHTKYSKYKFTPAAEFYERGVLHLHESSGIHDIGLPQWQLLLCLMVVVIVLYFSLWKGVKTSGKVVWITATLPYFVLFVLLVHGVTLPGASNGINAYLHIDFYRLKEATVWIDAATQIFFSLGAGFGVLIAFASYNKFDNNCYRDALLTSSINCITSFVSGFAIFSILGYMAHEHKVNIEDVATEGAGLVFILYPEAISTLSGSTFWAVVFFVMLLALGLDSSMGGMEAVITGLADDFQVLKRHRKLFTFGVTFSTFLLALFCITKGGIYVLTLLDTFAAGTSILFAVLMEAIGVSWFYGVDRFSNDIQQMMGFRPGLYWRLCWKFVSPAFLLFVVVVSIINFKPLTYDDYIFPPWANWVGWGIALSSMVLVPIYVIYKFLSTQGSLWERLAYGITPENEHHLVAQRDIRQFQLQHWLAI

Q: `CN(CCc1ccccc1)C1CCC(c2c[nH]c3ccc(C#N)cc23)C1` (stereo not shown) [Compound 10, 3-[3-(Methyl-phenethyl-amino)-cyclopentyl]-1H-indole-5-carbonitrile] was tested. Which Ki did it give?
A: The Ki was 100 to 1000 nM.

Q: `CN(Cc1ccccc1)C1CCC(c2c[nH]c3ccc(C#N)cc23)C1` (stereo not shown) [Compound 12, 3-[3-(Benzyl-methyl-amino)-cyclopentyl]-1H-indole-5-carbonitrile] was tested. Which Ki did it give?
A: Its Ki is 100 to 1000 nM.

Q: For `N#Cc1ccc2[nH]cc(C3CCC(NCc4ccccc4)C3)c2c1` (stereo not shown) [Compound 13, 3-(3-Benzylamino-cyclopentyl)-1H-indole-5-carbonitrile], which Ki is on record?
A: The Ki was 100 to 1000 nM.

Q: Which Ki does the source give for `CCCN(CCC)C1CCC(c2c[nH]c3ccc(C#N)cc23)C1` (stereo not shown) [Compound 15, 3-(3-Dipropylamino-cyclopentyl)-1H-indole-5-carbonitrile] here?
A: Its Ki is over 1000 nM.

Q: For `Cn1cc(C2CCC(NCc3ccccc3)C2)c2cc(C#N)ccc21` (stereo not shown) [Compound 19, 3-(3-Benzylamino-cyclopentyl)-1-methyl-1H-indole-5-carbonitrile], which Ki is on record?
A: The Ki was 100 to 1000 nM.

Q: With `Cn1cc(C2CCC(NCCc3ccccc3)C2)c2cc(C#N)ccc21` (stereo not shown) [Compound 20, 1-Methyl-3-(3-phenethylamino-cyclopentyl)-1H-indole-5-carbonitrile] as the compound, how does the Ki read?
A: Its Ki is 100 to 1000 nM.
